Values quoted from earlier work in PMC12029836, “Phytotoxicity, Cytotoxicity, and Antimicrobial Activity of Triethanolammonium Amino Acids Salts” (Molecules, 2025).

Experiments:
cress [1] = test system: cress; set-up: method as in doi:10.1134/S0036023620090089; conditions: cited from earlier work
E. coli = test system: E. coli; set-up: method as in doi:10.3139/113.110524; conditions: E. coli ref 49; cited from earlier work
[2] = test system: 3T3 cell (mouse embryonic fibroblasts); conditions: cited from earlier work
[3] = set-up: method as in PMID 28665154; conditions: cited from earlier work
cress [4] = test system: cress; set-up: method as in PMID 19052732; conditions: cress seed, highest concentration of 1000 mg L^−1 ref 17; cited from earlier work

Compound: O=C(O)C=Cc1ccccc1.OCCN(CCO)CCO [TEA salt of cinnamic acid]
- effect on cress seed germination and root growth (cress [1]; 0.003 and 0.03 mg L^−1 ref 12): most visible stimulation

Compound: O=C(O)c1ccccc1O.OCCN(CCO)CCO [TEA salicylate]
- effect on root and shoot length (cress [1]; 0.03 mg L^−1 ref 12): significant inhibition effect

Compound: benzalkonium chloride
- MIC (E. coli): 15 µg/mL

Compound: NCC(=O)O [[Cho][Gly]]
- IC50 ([2]; 3T3 cells, 48 h, printed also as (1%) ref 34): ~55 mM

Compound: C[N+](C)(C)CCO.NC(Cc1ccccc1)C(=O)[O-] (stereo not drawn) [[Cho][Phe]]
- IC50 [3]: 0.42 % (v/v)

Compound: CCCCCCn1cc[n+](C)c1.[Cl-] [[HMIM][Cl]]
- decrease in germination (cress [4]): 100%

Compound: CCn1cc[n+](C)c1.[Cl-] [[EMIM][Cl]]
- decrease in germination (cress [4]): 85%

Compound: C[N+](C)(C)CCO.N[C@@H](CCC(=O)O)C(=O)[O-] [[Cho][Glu]]
- IC50 [3]: 0.43 % (v/v)

Compound: C[N+](C)(C)CCO.NCC(=O)[O-] [[Cho][Gly]]
- Cell viability [2]: over 90%
